Biological target: T1, human capsaicin receptor (Homo sapiens, UniProt Q8NER1)
T1 construct: pBK-CMV expression construct encoding the full length human capsaicin receptor; expressed in transfected cells
Experiment: Calcium mobilization assay, determination of antagonist activity (Example 6)
Type: cell-based
Conditions: determined as described in Example 6 (calcium mobilization, antagonist activity); Table II
Outline: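 Antagonism measured as inhibition of capsaicin-evoked (final concentration = EC50, from an 8-point 1 nM–3 μM curve) Fluo-3 calcium signal in stable hVR1-HEK293 cells. Test compounds at 1–5 μM final, 0.5–6 h dark preincubation at room temperature. IC50 = concentration giving 50% reduction versus agonist-only response.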

T1 sequence (Q8NER1 whole entry): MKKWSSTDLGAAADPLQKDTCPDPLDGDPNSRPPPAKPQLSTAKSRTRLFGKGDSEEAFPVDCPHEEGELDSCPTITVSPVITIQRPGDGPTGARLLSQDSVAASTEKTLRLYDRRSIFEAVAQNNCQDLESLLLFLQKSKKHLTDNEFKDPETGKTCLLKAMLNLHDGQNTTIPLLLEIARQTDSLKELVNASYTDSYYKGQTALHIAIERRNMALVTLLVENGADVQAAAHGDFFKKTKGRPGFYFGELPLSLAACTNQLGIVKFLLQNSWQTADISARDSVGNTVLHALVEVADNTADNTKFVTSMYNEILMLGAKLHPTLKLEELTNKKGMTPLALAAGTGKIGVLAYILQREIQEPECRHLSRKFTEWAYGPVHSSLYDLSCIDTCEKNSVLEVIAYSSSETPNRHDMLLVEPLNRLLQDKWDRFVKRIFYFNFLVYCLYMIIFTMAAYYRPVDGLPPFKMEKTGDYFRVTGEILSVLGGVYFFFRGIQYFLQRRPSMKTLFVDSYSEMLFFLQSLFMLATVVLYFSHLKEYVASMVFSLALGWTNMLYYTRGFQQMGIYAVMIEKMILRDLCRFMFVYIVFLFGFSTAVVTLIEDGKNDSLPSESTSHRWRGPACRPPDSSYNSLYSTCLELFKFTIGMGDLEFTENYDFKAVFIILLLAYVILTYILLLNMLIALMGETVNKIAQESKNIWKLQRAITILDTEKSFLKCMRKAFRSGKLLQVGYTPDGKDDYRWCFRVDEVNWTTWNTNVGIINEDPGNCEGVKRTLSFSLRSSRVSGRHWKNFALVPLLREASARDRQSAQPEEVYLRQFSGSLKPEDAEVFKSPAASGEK

IC50, ≤ 1 µM:
COCCN(C)c1nc(-c2ccc(F)c(C)c2)cc(N2CCN(c3ncccc3C(F)(F)F)CC2)n1 [Example 737, 4-(4-fluoro-3-methylphenyl)-N-(2-methoxyethyl)-N-methyl-6-{4-[3-(trifluoromethyl)pyridin-2-yl]piperazin-1-yl}pyrimid in-2-amine]
CCN(C)c1nc(-c2ccc(F)c(C)c2)cc(N2CCN(c3ncccc3C(F)(F)F)CC2)n1 [Example 738, N-ethyl-4-(4-fluoro-3-methylphenyl)-N-methyl-6-{4-[3-(trifluoromethyl)pyridin-2-yl]piperazin-1-yl)pyrimidin-2-amine]
Cc1cc(-c2cc(N3CCN(c4ncccc4C(F)(F)F)CC3)nc(N3C(C)C=CC3C)n2)ccc1F (stereo not drawn) [Example 739, 2-(2,5-dimethyl-2,5-dihydro-1H-pyrrol-1-yl)-4-(4-fluoro-3-methylphenyl)-6-{4-[3-(trifluoromethyl)pyridin-2-yl]piperazin-1-yl}pyrimidine]
CC1CC(=O)N1c1nc(-c2ccc(F)c(Cl)c2)cc(N2CCN(c3ncccc3C(F)(F)F)CC2)n1 (stereo not drawn) [Example 740, 1-(4-(3-chloro-4-fluorophenyl)-6-{4-[3-(trifluoromethyl)pyridin-2-yl]piperazin-1-yl}pyrimidin-2-yl)-4-methylazetidin-2-one]
CC1CCCCN1c1nc(-c2ccc(F)c(Cl)c2)cc(N2CCN(c3ncccc3Cl)C[C@H]2C)n1 (stereo partly drawn) [Example 741, 4-(3-chloro-4-fluorophenyl)-6-[(2R)-4-(3-chloropyridin-2-yl)-2-methylpiperazin-1-yl]-2-(2-methytpiperidin-1-yl)pyrimidine]
C[C@@H]1CN(c2ncccc2Cl)CCN1c1cc(-c2ccc(F)c(Cl)c2)nc(N2CCOC(C)(C)C2)n1 [Example 742, 4-{4-(3-chloro-4-fluorophenyl)-6-[(2R)-4-(3-chloropyridin-2-yl)-2-methylpiperazin-1-yl]pyrimidin-2-yl}-2,2-dimethylmorpholine]
Cc1cc(-c2cc(N3CCN(c4ncccc4Cl)CC3)nc(N3CCOC(C)(C)C3)n2)ccc1F [Example 743, 4-{4-[4-(3-chloropyridin-2-yl)piperazin-1-yl]-6-(4-fluoro-3-methylphenyl)pyrimidin-2-yl]-2,2-dimethylmorpholine]
Cc1cc(-c2cc(N3CCN(c4ncccc4Cl)CC3)nc(N3CCCCC3C)n2)ccc1F (stereo not drawn) [Example 744, 4-[4-(3-chloropyridin-2-yl)piperazin-1-yl]-6-(4-fluoro-3-methylphenyl)-2-(2-methylpiperidin-1-yl)pyrimidine]
Cc1cc(-c2cc(N3CCN(c4ncccc4Cl)C[C@H]3C)nc(N3CCCCC3C)n2)ccc1F (stereo partly drawn) [Example 745, 4-[(2R)-4-(3-chloropyridin-2-yl)-2-methylpiperazin-1-yl]-6-(4-fluoro-3-methylphenyl)-2-(2-methylpiperidin-1-yl)pyrimidine]
CC1CCN1c1nc(-c2ccc(F)c(Cl)c2)cc(N2CCN(c3ncccc3C(F)(F)F)CC2)n1 (stereo not drawn) [Example 746, 4-(3-ohloro-4-fluorophenyl)-2-(2-methylazetidin-1-yl)-6-{4-[3-(trifluoromethyl)pyridin-2-yl]piperazin-1-yl}pyrimidine]
O=C1CCN1c1nc(-c2ccc(F)c(Cl)c2)cc(N2CCN(c3ncccc3C(F)(F)F)CC2)n1 [Example 747, 1-(4-(3-chloro-4-fluorophenyl)-6-{4-(3-(trifluoromethyl)pyridin-2-yl]piperazin-1-yl}pyrimidin-2-yl)azetidin-2-one]
CC1CCCN1c1nc(-c2ccc(F)c(F)c2)cc(N2CCN(c3ncccc3F)CC2)n1 (stereo not drawn) [Example 748, 4-(3,4-difluorophenyl)-6-[4-(3-fluoropyridin-2-yl)piperazin-1-yl]-2-(2-methylpyrrolidin-1-yl)pyrimidine]
CC1CCCN1c1nc(-c2ccc(F)cc2)cc(N2CCN(c3ncccc3F)CC2)n1 (stereo not drawn) [Example 749, 4-(4-fluorophenyl)-6-[4-(3-fluoropyridin-2-yl)piperazin-1-yl]-2-(2-methylpyrrolidin-1-yl)pyrimidine]
OCCN1CCN(c2nc(-c3ccc(F)c(Cl)c3)cc(N3CCN(c4ncccc4C(F)(F)F)CC3)n2)CC1 [Example 750, 2-[4-(4-(3-chloro-4-fluorophenyl)-6-{4-[3-(trifluoromethyl)pyridin-2-yl]piperazin-1-yl}pyrimidin-2-yl)piperazin-1-yl]ethanol]
CC1CCC(C)N1c1nc(-c2ccc(F)c(Cl)c2)cc(N2CCN(c3ncccc3Cl)CC2)n1 (stereo not drawn) [Example 751, 4-(3-chloro-4-fluorophenyl)-6-[4-(3-chloropyridin-2-yl)piperazin-1-yl]-2-(2,5-dimethylpyrrolidin-1-yl)pyrimidine]
CC1CCC(C)N1c1nc(-c2ccc(F)c(Cl)c2)cc(N2CCN(c3ncccc3Cl)C[C@H]2C)n1 (stereo partly drawn) [Example 752, 4-(3-chloro-4-fluorophenyl)-6-[(2R)-4-(3-chloropyridin-2-yl)-2-methylpiperazin-1-yl]-2-(2,5-dimethylpyrrolidin-1-yl)pyrimidine]
Cc1cc(-c2cc(N3CCN(c4ncccc4C(F)(F)F)C[C@H]3C)nc(N3CCCC3)n2)ccc1F [Example 753, 4-(4-fluoro-3-methylphenyl)-6-{(2R)-2-methyl-4-[3-(trifluoromethyl)pyridin-2-yl]piperazin-1-yl}-2-pyrrolidin-1-ylpyrimidine]
Cc1cc(-c2cc(N3CCN(c4ncccc4C(F)(F)F)C[C@H]3C)nc(N3CCCC3C)n2)ccc1F (stereo partly drawn) [Example 754, 4-(4-fluoro-3-methyiphenyl)-2-(2-methylpyrrolidin-1-yl)-6-{(2R)-2-methyt-4-[3-(trifluoromethyl)pyridin-2-yl]piperazin-1-yl}pyrimidine]
Cc1cc(-c2cc(N3CCN(c4ncccc4C(F)(F)F)C[C@H]3C)nc(N3C(C)CCC3C)n2)ccc1F (stereo partly drawn) [Example 755, 2-(2,5-dimethylpyrrolidin-1-yl)-4-(4-fluoro-3-methylphenyl)-6-{(2R)-2-methyl-4-[3-(trifluoromethyl)pyridin-2-yl]piperazin-1-yl}pyrimidine]
Cc1cc(-c2cc(N3CCN(c4ncccc4C(F)(F)F)CC3)nc(N3CCC3C)n2)ccc1F (stereo not drawn) [Example 756, 4-(4-fluoro-3-methylphenyl)-2-(2-methylazetidin-1-yl)-6-{4-[3-(trifluoromethyl)pyridin-2-yl]piperazin-1-yl}pyrimidine]
CCC(C)N(C)c1nc(-c2ccc(F)c(C)c2)cc(N2CCN(c3ncccc3C(F)(F)F)CC2)n1 (stereo not drawn) [Example 757, N-(sec-butyl)-4-(4-fluoro-3-methylphenyl)-N-methyl-6-{4-[3-(trifluoromethyl)pyridin-2-yl]piperazin-1-yl}pyrimidin-2-amine]
CC(CO)N(C)c1nc(-c2ccc(F)c(Cl)c2)cc(N2CCN(c3ncccc3C(F)(F)F)CC2)n1 (stereo not drawn) [Example 758, 2-[(4-(3-chloro-4-fluorophenyl)-6-{4-[3-(trifluoromethyl)pyridin-2-yl]piperazin-1-yl}pyrimidin-2-yl)(methyl)amino]propan-1-ol]
Cc1cc(-c2cc(N3CCN(c4ncccc4C(F)(F)F)C[C@H]3C)nc(N3CCCCC3)n2)ccc1F [Example 759, 4-(4-fluoro-3-methylphenyl)-6-{(2R)-2-methyl-4-[3-(trifluoromethyl)pyridin-2-yl]piperazin-1-yl}-2-piperidin-1-ylpyrimidine]
COC[C@@H]1CCCN1c1nc(-c2ccc(F)c(C)c2)cc(N2CCN(c3ncccc3C(F)(F)F)C[C@H]2C)n1 [Example 760, 4-(4-fluoro-3-methylphenyl)-2-[(2S)-2-(methoxymethyl)pyrrolidin-1-yl]-6-{(2R)-2-methyl-4-[3-(trifluoromethyl)pyridin-2-yl]piperazin-1-yl}pyrimidine]
COC[C@H]1CCCN1c1nc(-c2ccc(F)c(C)c2)cc(N2CCN(c3ncccc3C(F)(F)F)C[C@H]2C)n1 [Example 761, 4-(4-fluoro-3-methylphenyl)-2-[(2R)-2-(methoxymethyl)pyrrolidin-1-yl]-6-{(2R)-2-methyl-4-[3-(trifluoromethyl)pyridin-2-yl]piperazin-1-yl}pyrimidine]
Cc1cc(-c2cc(N3CCN(c4ncccc4C(F)(F)F)C[C@H]3C)nc(N(C)C(C)C)n2)ccc1F [Example 762, 4-(4-fluoro-3-methylphenyl)-N-isopropyl-N-methyl-6-{(2R)-2-methyl-4-[3-(trifluoromethyl)pyridin-2-yl]piperazin-1-yl}pyrimidin-2-amine]
C[C@@H]1CN(c2ncccc2C(F)(F)F)CCN1c1cc(-c2ccc(F)c(Cl)c2)nc(N2CCCC2)n1 [Example 763, 4-(3-chloro-4-fluorophenyl)-6-{(2R)-2-methyl-4-[3-(trifluoromethyl)pyridin-2-yl]piperazin-1-yl}-2-pyrrolidin-1-ylpyrimidine]
CC1CCCN1c1nc(-c2ccc(F)c(Cl)c2)cc(N2CCN(c3ncccc3C(F)(F)F)C[C@H]2C)n1 (stereo partly drawn) [Example 764, 4-(3-chloro-4-fluorophenyl)-2-(2-methylpyrrolidin-1-yl)-6-{(2R)-2-methyl-4-[3-(trifluoromethyl)pyridin-2-yl]piperazin-1-yl}pyrimidine]
C[C@@H]1CN(c2ncccc2C(F)(F)F)CCN1c1cc(-c2ccc(F)c(Cl)c2)nc(N2CCCCC2)n1 [Example 765, 4-(3-chloro-4-fluorophenyl)-6-{(2R)-2-methyt-4-[3-(trifluoromethyl)pyridin-2-yl]piperazin-1-yl}-2-piperidin-1-ylpyrimidine]
Cc1cc(-c2cc(N3CCN(c4ncccc4C(F)(F)F)CC3)nc(N3CCC3(C)C)n2)ccc1F [Example 766, 2-(2,2-dimethylazetidin-1-yl)-4-(4-fluoro-3-methylphenyl)-6-{4-[3-(trifluoromethyl)pyridin-2-yl]piperazin-1-yl}pyrimidine]

Reference: US7566712B2, “Biaryl piperazinyl-pyridine analogues” (Neurogen Corporation, priority 2003, dated 2009)
